Assay results taken from patent publication US20250214977A1, “STAT6 INHIBITORS AND USES THEREOF” (Kymera Therapeutics, Inc., priority 2024, published 2025).

system: Phosphorylation of STAT6 in human A549 cells; assay: Phosphorylated STAT6 (pSTAT6) flow cytometry assay in human A549 cells; format: cell-based; settings: read-out: STAT6 IL4 pSTAT6 assay in A549 cells: Average IC50
Description: Example 3. Phosphorylated STAT6 (pSTAT6) Flow Cytometry Assay in Human A549 Cells
Phosphorylation of STAT6 in human A549 cells was quantitatively measured using flow cytometry technology.

SMILES | IC50
COc1ccccc1-c1cc(C2=CCCN(C(=O)CCn3ccnn3)C2)c(F)c2[nH]c(C(=O)N3CCN(S(C)(=O)=O)CC3)cc12 [Example I-989] | < 100 nM
CNc1ccc(-c2cc(C3=CCCN(C(=O)CCn4ccnn4)C3)c(F)c3[nH]c(C(=O)N4CCN(C)CC4)cc23)c(OC)c1 [Example I-990] | < 100 nM
COc1ccccc1C(=O)N1CCN(C(=O)c2cc3c(-c4ccccc4OC)cc(C4=CCCN(C(=O)CCn5ccnn5)C4)c(F)c3[nH]2)CC1 [Example I-991] | < 100 nM
COc1ccccc1-c1cc(C2=CCCN(C(=O)CCn3ccnn3)C2)c(F)c2[nH]c(C(=O)N3CC(Oc4cccnc4)C3)cc12 [Example I-992] | < 100 nM
COc1ccccc1-c1cc(C2=CCCN(C(=O)CCn3ccnn3)C2)c(F)c2[nH]c(C(=O)Nc3ccnn3C)cc12 [Example I-993] | 100 to 1000 nM
COc1ccccc1-c1cc(C2=CCCN(C(=O)CCn3ccnn3)C2)c(F)c2[nH]c(C(=O)N3CCC(=O)N(C)CC3)cc12 [Example I-994] | < 100 nM
COc1ccccc1-c1cc(C2=CCCN(C(=O)CCn3ccnn3)C2)c(F)c2[nH]c(C(=O)N3CCN(c4ncccn4)C[C@@H]3C)cc12 [Example I-995] | < 100 nM
COc1ccccc1-c1cc(C2=CCCN(C(=O)CCn3ccnn3)C2)c(F)c2[nH]c(C(=O)N3CCNC(=O)[C@@H]3C)cc12 [Example I-996] | < 100 nM
CCCN1CCN(C(=O)c2cc3c(-c4ccccc4OC)cc(C4=CCCN(C(=O)CCn5ccnn5)C4)c(F)c3[nH]2)C[C@@H]1C [Example I-997] | < 100 nM
COC(=O)C1CN(C(=O)c2cc3c(-c4ccccc4OC)cc(C4=CCCN(C(=O)CCn5ccnn5)C4)c(F)c3[nH]2)CC1C (stereo not drawn) [Example I-998] | < 100 nM
COc1ccccc1-c1cc(C2=CCCN(C(=O)CCn3ccnn3)C2)c(F)c2[nH]c(C(=O)N3CC(Oc4ccc(F)cc4)C3)cc12 [Example I-999] | < 100 nM
COc1ccccc1-c1cc(C2=CCCN(C(=O)CCn3ccnn3)C2)c(F)c2[nH]c(C(=O)N3CCC4(CC3)OCCO4)cc12 [Example I-1000] | < 100 nM
C#CCOC1CCN(C(=O)c2cc3c(-c4ccccc4OC)cc(C4=CCCN(C(=O)CCn5ccnn5)C4)c(F)c3[nH]2)CC1 [Example I-1001] | < 100 nM
COc1ccccc1-c1cc(C2=CCCN(C(=O)CCn3ccnn3)C2)c(F)c2[nH]c(C(=O)N3CCC(c4cccnc4C)CC3)cc12 [Example I-1002] | < 100 nM
COc1ccccc1-c1cc(C2=CCCN(C(=O)CCn3ccnn3)C2)c(F)c2[nH]c(C(=O)N3CCN(c4ccc[nH]c4=O)CC3)cc12 [Example I-1003] | < 100 nM
COC(=O)c1cc(N2CCN(C(=O)c3cc4c(-c5ccccc5OC)cc(C5=CCCN(C(=O)CCn6ccnn6)C5)c(F)c4[nH]3)CC2)cn1C [Example I-1004] | < 100 nM
COc1ccccc1-c1cc(C2=CCCN(C(=O)CCn3ccnn3)C2)c(F)c2[nH]c(C(=O)N3CCN(c4cnn(C)c4C#N)CC3)cc12 [Example I-1005] | < 100 nM
COc1ccccc1-c1cc(C2=CCCN(C(=O)CCn3ccnn3)C2)c(F)c2[nH]c(C(=O)N3CCC(C)(O)C3)cc12 (stereo not drawn) [Example I-1006] | 100 to 1000 nM
COc1ccccc1-c1cc(C2=CCCN(C(=O)CCn3ccnn3)C2)c(F)c2[nH]c(C(=O)N3CCO[C@H](C)C3)cc12 [Example I-1007] | < 100 nM

SMILES | IC50
COc1ccccc1-c1cc(C2=CCCN(C(=O)CCn3ccnn3)C2)c(F)c2[nH]c(C(=O)N3CCN(c4ccccn4)C(=O)C3)cc12 [Example I-1008] | < 100 nM
COc1ccccc1-c1cc(C2=CCCN(C(=O)CCn3ccnn3)C2)c(F)c2[nH]c(C(=O)N3CCN(c4ccc(C#N)cc4F)CC3)cc12 [Example I-1009] | < 100 nM
COc1ccccc1-c1cc(C2=CCCN(C(=O)CCn3ccnn3)C2)c(F)c2[nH]c(C(=O)N3CCc4ncncc4C3)cc12 [Example I-1010] | < 100 nM
COc1ccccc1-c1cc(C2=CCCN(C(=O)CCn3ccnn3)C2)c(F)c2[nH]c(C(=O)N3CCC4CC43)cc12 (stereo not drawn) [Example I-1011] | < 100 nM
COc1ccccc1-c1cc(C2=CCCN(C(=O)CCn3ccnn3)C2)c(F)c2[nH]c(C(=O)N3CCc4ccc(N)cc4C3)cc12 [Example I-1012] | < 100 nM
COc1ccccc1-c1cc(C2=CCCN(C(=O)CCn3ccnn3)C2)c(F)c2[nH]c(C(=O)N3CCN(c4cnn5c4CCC5)CC3)cc12 [Example I-1013] | < 100 nM
COc1ccccc1-c1cc(C2=CCCN(C(=O)CCn3ccnn3)C2)c(F)c2[nH]c(C(=O)N3CCN(CC4(C#N)CC4)CC3)cc12 [Example I-1014] | < 100 nM
COc1ccccc1-c1cc(C2=CCCN(C(=O)CCn3ccnn3)C2)c(F)c2[nH]c(C(=O)N3CCN(c4cnn5ccncc45)CC3)cc12 [Example I-1015] | < 100 nM
COc1ccccc1-c1cc(C2=CCCN(C(=O)CCn3ccnn3)C2)c(F)c2[nH]c(C(=O)N3CCN(c4cn(C)c5ncncc45)CC3)cc12 [Example I-1016] | < 100 nM
COc1ccccc1-c1cc(C2=CCCN(C(=O)CCn3ccnn3)C2)c(F)c2[nH]c(C(=O)N3CCN(c4cnc5ncccn45)CC3)cc12 [Example I-1017] | < 100 nM
COc1ccccc1-c1cc(C2=CCCN(C(=O)CCn3ccnn3)C2)c(F)c2[nH]c(C(=O)N3CCN(c4c(C)ccn5nccc45)CC3)cc12 [Example I-1019] | < 100 nM
COc1ccccc1-c1cc(C2=CCCN(C(=O)CCn3ccnn3)C2)c(F)c2[nH]c(C(=O)N3CCN(c4cccc(=O)n4C)CC3)cc12 [Example I-1020] | < 100 nM
COc1ccccc1-c1cc(C2=CCCN(C(=O)CCn3ccnn3)C2)c(F)c2[nH]c(C(=O)N3CCN(c4cccn(C)c4=O)CC3)cc12 [Example I-1021] | < 100 nM
COc1ccccc1-c1cc(C2=CCCN(C(=O)CCn3ccnn3)C2)c(F)c2[nH]c(C(=O)N3CCN(c4ccc(=O)[nH]c4C)CC3)cc12 [Example I-1022] | < 100 nM
COc1ccccc1-c1cc(C2=CCCN(C(=O)CCn3ccnn3)C2)c(F)c2[nH]c(C(=O)N3CCN(c4cc(C)c(=O)n(C)c4)CC3)cc12 [Example I-1023] | < 100 nM
COc1ccccc1-c1cc(C2=CCCN(C(=O)CCn3ccnn3)C2)c(F)c2[nH]c(C(=O)N3CCN(c4nc(C)cs4)CC3)cc12 [Example I-1024] | < 100 nM
COc1ccccc1-c1cc(C2=CCCN(C(=O)CCn3ccnn3)C2)c(F)c2[nH]c(C(=O)N3CCN(c4ccnn4C)CC3)cc12 [Example I-1025] | < 100 nM
COc1ccccc1-c1cc(C2=CCCN(C(=O)CCn3ccnn3)C2)c(F)c2[nH]c(C(=O)N3CCN(c4cncn4C)CC3)cc12 [Example I-1026] | < 100 nM
COc1ccccc1-c1cc(C2=CCCN(C(=O)CCn3ccnn3)C2)c(F)c2[nH]c(C(=O)Nc3cccn(C)c3=O)cc12 [Example I-1027] | 100 to 1000 nM

SMILES | IC50
COCc1cccc(NC(=O)c2cc3c(-c4ccccc4OC)cc(C4=CCCN(C(=O)CCn5ccnn5)C4)c(F)c3[nH]2)c1 [Example I-1028] | 1000 to 10000 nM
COc1ccccc1-c1cc(C2=CCCN(C(=O)CCn3ccnn3)C2)c(F)c2[nH]c(C(=O)N3CCc4nocc4C3)cc12 [Example I-1029] | < 100 nM
COc1ccccc1-c1cc(C2=CCCN(C(=O)CCn3ccnn3)C2)c(F)c2[nH]c(C(=O)N3CCN(c4c(C)cc[nH]c4=O)CC3)cc12 [Example I-1030] | < 100 nM
COc1ccccc1-c1cc(C2=CCCN(C(=O)CCn3ccnn3)C2)c(F)c2[nH]c(C(=O)N3CCC(=O)C3)cc12 [Example I-1031] | < 100 nM
COc1ccccc1-c1cc(C2=CCCN(C(=O)CCn3ccnn3)C2)c(F)c2[nH]c(C(=O)N3CCN(c4cc(C)c(O)c(C)c4)CC3)cc12 [Example I-1032] | 100 to 1000 nM
COc1ccccc1-c1cc(C2=CCCN(C(=O)CCn3ccnn3)C2)c(F)c2[nH]c(C(=O)N3CCN(c4ncn5c4CCCC5)CC3)cc12 [Example I-1034] | < 100 nM
COc1ccccc1-c1cc(C2=CCCN(C(=O)CCn3ccnn3)C2)c(F)c2[nH]c(C(=O)N3CC4CN(c5ncccc5OC)CC4C3)cc12 (stereo not drawn) [Example I-1035] | 100 to 1000 nM
CCOc1ccncc1-c1cc(C2=CCCN(C(=O)CCn3ccnn3)C2)c(F)c2[nH]c(C(=O)N3CCN(c4cnc(C)nc4OC)CC3)cc12 [Example I-1036] | < 100 nM
COc1cc(Cl)cnc1N1CCN(C(=O)c2cc3c(-c4cnc5ccccc5c4OC)cc(C4=CCCN(C(=O)CCn5ccnn5)C4)c(F)c3[nH]2)CC1 [Example I-1037] | 100 to 1000 nM
COc1cccc(N2CCN(C(=O)c3cc4c(-c5cnc6ccccc6c5OC)cc(C5=CCCN(C(=O)CCn6ccnn6)C5)c(F)c4[nH]3)CC2)n1 [Example I-1038] | 100 to 1000 nM
COc1cc(N(C)C)ccc1-c1cc(C2=CCCN(C(=O)CCn3ccnn3)C2)c(F)c2[nH]c(C(=O)N3CCN(c4ncc(Cl)cc4OC)CC3)cc12 [Example I-1039] | < 100 nM
CCc1ccncc1-c1cc(C2=CCCN(C(=O)CCn3ccnn3)C2)c(F)c2[nH]c(C(=O)N3CCN(c4ncc(C(F)(F)F)cc4OC)CC3)cc12 [Example I-1040] | < 100 nM
CCOc1ccncc1-c1cc(C2=CCCN(C(=O)CCn3ccnn3)C2)c(F)c2[nH]c(C(=O)N3CCN(c4ncc(C)nc4OC)CC3)cc12 [Example I-1041] | < 100 nM
CN(C(=O)c1cc2c(-c3cncnc3C3CC3)cc(C3=CCCN(C(=O)CCn4ccnn4)C3)c(F)c2[nH]1)C1CC1 [Example I-1043] | > 100000 nM
CCc1ccncc1-c1cc(C2=CCCN(C(=O)C(C)C)C2)c(F)c2[nH]c(C(=O)N3CCN(c4ncc(F)cc4OC)CC3)cc12 [Example I-1044] | 1000 to 10000 nM
CCn1nccc1-c1cc(C(=O)N2Cc3cnn(CC)c3C2)cc2cc(C3=CCCN(C(C)=O)C3)n(CC3CC3)c12 [Example I-1045] | 100 to 1000 nM
CCc1ccc(-c2cc(C(=O)N3Cc4cnn(CC)c4C3)cc3cc(C4=CCCN(C(C)=O)C4)n(CC4CC4)c23)c(C)n1 [Example I-1046] | 100 to 1000 nM
CN(C)C(=O)c1cc2cc(C3=CCCN(C(=O)CCn4ccnn4)C3)cc(C3CCNCC3)c2o1 [Example I-1048] | < 100 nM
COC(=O)c1cnn(-c2cc(C3=CCCN(C(=O)CCn4ccnn4)C3)cc3cc(C(=O)N(C)C)oc23)c1 [Example I-1049] | 100 to 1000 nM
